According to patent US12617818B2, “Compositions and methods for modulating myosin subfragment-2 coiled coil stability and methods for using them” (UNIVERSITY OF NORTH TEXAS, priority 2020, dated 2026):

How the values were obtained:
[1] = tested on: rabbit skeletal muscle myofibrils; experiment: Myofibrillar contractility assays (20 μL myofibril drop, 18 mM ATP added); format: biochemical; conditions: for % Contraction of imaged myofibril (FIG. 55, 56): after ATP; for IC50: read-out: IC-50 Value (50 percent of the reduction in percent contractility)
Protocol: Propionic acid, imidazole, and Mg(C2H3O2)2 were purchased from Sigma-Aldrich (St. Louis, MO). Boric Acid and KOH were purchased (EM Industries, Gibbstown, NJ). CaCl2) were purchased from Avantor (Center Valley, PA). We used myofibrils previously extracted and prepared from rabbit skeletal muscle as described by Duong and Reisler (1989). Afterwards, we stored the myofibril suspension with glycerol in a 1:1 ratio at −10° C.
We created a buffer solution with 2.2 mM Mg(C2H3O2)2, 10 mM imidazole, 130 mM propionic acid, 0.1 mM CaCl2) and titrated the solution with 10 M KOH until the pH reached 7. We decided to combine these chemicals and target a pH of 7 in order to simulate regular cell conditions for the myofibrils.
We began by extracting 50 mg of the myofibril suspension and adding 1 mL of our buffer into a 2 mL microcentrifuge tube. Next, we centrifuged the tube three times at 5000 RPM for 5 minutes on an IEC Micromax microcentrifuge, thereby isolating the denser myofibril from the lighter glycerol and unnecessary cellular constituents. After each centrifugation, we disposed of the supernatant and filled the microcentrifuge tube to 1 mL again with our buffer. Furthermore, we used a Fisher Vortex Genie 2™ to dislodge the pellet from the bottom of the microcentrifuge tube, making the next centrifugation effective. Following the series of centrifugations, we stored the myofibrils with the buffer in a 4° C. fridge to maintain their biological function. Every 2 days, we prepared new myofibrils with the method described above because previous batches of myofibril would be subject to rigor mortis: muscle death where myofibrils are indefinitely contracted.
A myofibrillar contractility assay tests the effect of certain chemical compounds on myofibril contraction. The assay involves the interaction of myofibrils with ATP, and we measured sarcomere length before and after the addition of ATP to determine percent contractility of myofibrils.
We created an apparatus for myofibrillar contractility assays by attaching a coverslip to a modified petri dish using electrical tape. Each coverslip used on the apparatus can run three assays total. We placed the apparatus on a ZEISS IM35™ inverted microscope equipped with a CANON POWERSHOT A510™ connected to one of the microscope's ocular lenses. Our apparatus allowed us to precisely adjust the field of view of the microscope, enabling efficient and quality imaging (FIG. 8).
To run an assay, we first placed a 20 μL drop of our prepared myofibrils onto the coverslip. Then, we added chemical modifiers (peptides and antibodies) to each droplet as needed and used a CARL ZEISS PLAN 40/0.65 160/0.17™ objective lens to focus on the myofibrils with the microscope. Since the antibodies have a much larger molecular mass than the peptides, we determined that the antibodies would also require a longer period of time to diffuse throughout the myofibril droplet. We allowed the antibodies a minimum of 5 minutes to diffuse into the myofibril solution while we gave peptide modifiers 30 seconds to settle into the solution.
These myofibrils would be likely to show evidence of contraction when they interacted with the ATP in the assay. We photographed the chosen myofibril before the addition of ATP. Then, we pipetted 2 μL of 18 mM ATP on the myofibril droplet, and we typically observed a visible contraction within 30 seconds. We needed to carefully watch the camera screen when adding the ATP because the addition of ATP solution onto the drop or the motion of the myofibril as it contracted would occasionally displace the myofibril. If the myofibril moved, we adjusted our field of view accordingly so that the myofibril was visible once again.
After the contraction concluded, we re-imaged the myofibril to compare the current sarcomere length with the initial sarcomere length. […]

[2] = tested on: rabbit skeletal myosin HMM; experiment: In vitro motility assay of actin thin filaments over myosin HMM; format: biochemical
From the text: In vitro motility assay a classic method to determine the sliding velocity of actin thin filaments over immobilized myosin in the presence of ATP (Kron et al., 1991). The assay involves the immobilization of myosin either in thick filament assembly or through individual myosin molecule on a nitrocellulose or dichlorodimethylsilane treated coverslip. Fluorescently labelled actin thin filament is allowed to slide across the bound myosin molecule upon addition of ATP. Sliding of actin over myosin treated with myosin S2 binding proteins would establish their effect over acto-myosin interaction and overall force produced. Myosin heavy meromyosin would be enough to test the effect of stabilizer and destabilizer over the acto-myosin interaction, however to test the effect of MyBPC over myosin reconstituted in its thick filament form would be required since MyBPC binds to both light meromyosin and myosin S2. Myosin in its thick filament form will improve the binding of MyBPC to a myosin molecule rather than a single myosin molecule immobilized on a glass surface.
Rabbit skeletal myosin is dialyzed against buffer containing 0.5 M potassium chloride and 10 mM imidazole with pH 7.0 overnight to remove the impurities. Dialyzed myosin undergoes trypsin digestion with 1 mM magnesium chloride and α-chymotrypsin, digestion was stopped after addition of phenylmethylsulfonylfluoride in methanol at room temperature. Tryptic digest of myosin is dialyzed overnight at 4° C. against buffer containing 0.04 M potassium chloride and 10 mM imidazole with pH 7.0. Dialyzed tryptic digest of myosin is centrifuged at 21000 g for 60 minutes at 4° C. to yield myosin heavy meromyosin in the supernatant. This myosin heavy meromyosin achieved has a mixture of ATP sensitive and ATP insensitive heads. To purify myosin heavy meromyosin with ATP sensitive myosin S1 heads, F actin is added at an equimolar concentration to the unpurified myosin heavy meromyosin extract along with 1 mM ATP and magnesium chloride. Low salt assay buffer (25 mM potassium chloride, 10 mM imidazole, 2 mM magnesium chloride and 10 mM dithioerythritol with pH 7.0) was used as mixing solvent for the myosin heavy meromyosin purification step. Purified myosin heavy meromyosin with ATP sensitive heads are suspended in the supernatant when unpurified myosin heavy meromyosin with F actin, ATP and magnesium chloride is centrifuged with the speed of 21000 g at 4° C. ATP insensitive heads will bind F actin irreversibly thus forming the precipitate in the centrifugation step. Purified myosin heavy meromyosin with ATP sensitive heads are ready for the in vitro motility assay.
Rhodamine phalloidin labelling of F-actin F-actin and rhodamine phalloidin are mixed in 1:5 micro molar concentration ratio with low salt assay buffer. Rhodamine phalloidin binds in between the grooves of actin subunits of F-actin. The mixture of F-actin and rhodamine phalloidin is allowed to incubate overnight at 4° C. to allow maximal labelling of F-actin.
Glass coverslips are coated with freshly prepared 2% dichlorodimethylsilane in chloroform. Perfusion chamber is created by two halves of glass coverslips on a clean glass slide with help of vacuum grease. The perfusion chamber is then sealed with dichlorodimethylsilane treated coverslip with two side open to allow perfusion of buffer from one end and wicking on the opposite end. First step in preparation of slide is to immobilize either purified myosin heavy meromyosin or myosin thick filaments. These purified products are diluted with low salt assay buffer to achieve a final concentration of 0.1 μM before adding them in to perfusion chamber. Myosin heavy meromyosin or myosin thick filaments are allowed to immobilize on dichloro-dimethylsilane treated coverslip for a minute. Unbound myosin is washed away by low salt assay buffer once and multiple washes with assay buffer mixed with 0.5 mg/ml bovine serum albumin (AB-BSA) blocks the unbound protein. […]

| SMILES | % Contraction ([1]; 40 nM) | After (sarcomere length after ATP) ([1]; 40 nM) | Before (sarcomere length before ATP) ([1]; 40 nM) | % Contraction of imaged myofibril (FIG. 55, 56) ([1]; 40 nM) | % Contraction ([1]; 80 nM) | After (sarcomere length after ATP) ([1]; 80 nM) | Before (sarcomere length before ATP) ([1]; 80 nM) | % Contraction ([1]; 200 nM) | After (sarcomere length after ATP) ([1]; 200 nM) | Before (sarcomere length before ATP) ([1]; 200 nM) | IC50 [1] | Average velocity of actin thin filaments ([2]; 20 nM peptide) | Average velocity of actin thin filaments ([2]; 100 nM peptide) | other results |
| --- | --- | --- | --- | --- | --- | --- | --- | --- | --- | --- | --- | --- | --- | --- |
| C[C@H](NC(=O)[C@H](CCCCN)NC(=O)[C@H](Cc1ccccc1)NC(=O)[C@H](CCCCN)NC(=O)[C@H](CCCCN)NC(=O)[C@H](CCCCN)NC(=O)[C@H](CCCCN)NC(=O)[C@H](CCCCN)NC(=O)[C@H](CCCCN)NC(=O)[C@H](CCCCN)NC(=O)[C@@H](N)CCCCN)C(=O)N[C@@H](CCCCN)C(=O)N[C@@H](CCCCN)C(=O)N[C@@H](CCCCN)C(=O)N[C@@H](CCCCN)C(=O)N[C@@H](CCCCN)C(=O)N[C@@H](CCCCN)C(=O)O [Stabilizer] | 10 ± 1% | 1.9 μm | 2.2 μm | 11% | 9 ± 2% | 2.0 μm | 2.2 μm | 8 ± 1% | 2.0 μm | 2.2 μm | 0.068 ± 0.027 µM | 6.18±0.28 microns/second | 6.21±0.14 microns/second | % Contraction ([1]; 10 nM): 12 ± 2%; After (sarcomere length after ATP) ([1]; 10 nM): 1.9 μm; Before (sarcomere length before ATP) ([1]; 10 nM): 2.1 μm |
| CSCC[C@H](NC(=O)[C@H](CCC(=O)O)NC(=O)[C@H](CCCNC(=N)N)NC(=O)[C@H](CCC(=O)O)NC(=O)[C@H](CC(=O)O)NC(=O)[C@H](CCC(=O)O)NC(=O)[C@H](CC(C)C)NC(=O)[C@H](CCCNC(=N)N)NC(=O)[C@H](CCC(=O)O)NC(=O)[C@H](CC(N)=O)NC(=O)[C@H](CCSC)NC(=O)[C@@H](N)CCC(=O)O)C(=O)N[C@@H](CCCCN)C(=O)N[C@@H](C)C(=O)N[C@@H](CCC(=O)O)C(=O)N[C@@H](CC(C)C)C(=O)N[C@H](C(=O)N[C@@H](C)C(=O)N[C@@H](CCCCN)C(=O)O)[C@@H](C)O [Destabilizer] | 25 ± 8% | 1.7 μm | 2.2 μm | 30% | 32 ± 4% | 1.5 μm | 2.3 μm | 35 ± 7% | 1.5 μm | 2.3 μm | 0.012 ± 0.006 µM | 8.22±0.254 microns/second | 8.39±0.397 microns/second | % Contraction ([1]; 20 nM): 21 ± 3%; After (sarcomere length after ATP) ([1]; 20 nM): 1.7 μm; Before (sarcomere length before ATP) ([1]; 20 nM): 2.2 μm; induction of contraction compared to control group ([1]; high concentrations): more than two-fold; EC50 ([1]; read-out: EC-50 value (50 percent of the increase in percent contraction)): 0.008 ± 0.004 µM; velocity distribution of actin thin filaments (histogram) ([2]; 20 nM and 100 nM peptide): ~8.0 microns/second; rise of motility of actin thin filaments ([2]; vs control): 18% |
